From patent US20240262819A1, “NOVEL COMPOUNDS HAVING INHIBITORY ACTIVITY AGAINST GLUCOSYLCERAMIDE SYNTHASE OR PHARMACEUTICALLY ACCEPTABLE SALT THEREOF, PROCESSES FOR PREPARING THE SAME, AND PHARMACEUTICAL COMPOSITIONS COMPRISING THE SAME” (YUHAN CORPORATION, priority 2021, published 2024)
Like-named read-outs stand apart in the source and are kept apart here.

Columns and labels:
[1] = tested on: GM1 production in Jurkat cells; test: cells; type: cell-based; conditions: Homo sapiens, Jurkat, 72 h
[2] = Evaluation of blood-brain barrier (BBB) permeability through oral administration; type: in vivo, mice; conditions: mouse, in vivo, mice, oral, 4 hr; for Kp at 4 h: read-out: Mean brain-plasma drug ratio at 4 hr
Description: The blood-brain barrier (BBB) permeability was evaluated in mice, with respect to the compounds according to the present invention and the control (ibiglustat). Each compound of the present invention and the control were suspended in 0.5% methyl cellulose containing 0.2% Tween 80 and then orally administered to mice at a dose of 10 or 30 mg/10 ml/kg. After the whole blood was collected from the heart of each mouse at the time of 4 hours after the administration, it was placed in a lithium heparin tube and immediately centrifuged to obtain the plasma. After the exsanguination was carried out through abdominal vena cava incision, the forebrain was taken by dissection of the head. Both of the forebrain and the plasma were stored in a −80° C. freezer until the analysis of drug concentrations therein. For the analysis of drug concentrations therein, the forebrain was immersed in distilled water and then homogenized with a homogenizer to obtain a homogenate. Each plasma and homogenate was treated with acetonitrile to precipitate proteins, vortexed for 15 seconds, and then centrifuged (12700 rpm, 10 min, 4° C.). The obtained supernatant was diluted with an 80% aqueous solution of acetonitrile containing 0.1% formic acid and then analyzed with an LC-MS/MS instrument. LC-MS/MS analysis was carried out with a reversed-phase column, using distilled water containing 0.1% formic acid and acetonitrile as mobile phases. Each eluted material was detected through a mass spectrometer to calculate the drug concentrations thereof. The brain-plasma drug ratio (B/P ratio) was calculated from the drug concentrations in each tissue to evaluate the blood-brain barrier (BBB) permeability.

[3] = dose 30 mg/kg, read-out: Mean drug concentrations in brain tissue at 4 hr
[4] = dose 30 mg/kg, read-out: Mean drug concentrations in plasma at 4 hr

| SMILES | IC50 [1] | Kp at 4 h ([2]; dose 30 mg/kg) | concentration at 4 h [2, 3] | concentration at 4 h [2, 4] | Kp at 4 h ([2]; dose 10 mg/kg) | concentration at 4 h ([2]; dose 10 mg/kg, read-out: Mean drug concentrations in brain tissue at 4 hr) | concentration at 4 h ([2]; dose 10 mg/kg, read-out: Mean drug concentrations in plasma at 4 hr) |
| --- | --- | --- | --- | --- | --- | --- | --- |
| CCCOc1ccc(-c2ccc3c(c2)CC(C)(C)[C@H]3NC(=O)O[C@@H]2CN3CCC2CC3)cc1F [Example 20, (S)-quinuclidin-3-yl((R)-5-(3-fluoro-4-propoxyphenyl)-2,2-dimethyl-2,3-dihydro-1H-inden-1-yl)carbamate] | 18.4 nM | 7.12 | 4070 ng/g | 578 ng/mL |  |  |  |
| CCCOc1ccc(-c2cc3c(cc2F)[C@H](NC(=O)O[C@@H]2CN4CCC2CC4)C(C)(C)C3)cc1 [Example 69, (S)-quinuclidin-3-yl((R)-6-fluoro-2,2-dimethyl-5-(4-propoxyphenyl)-2,3-dihydro-1H-inden-1-yl)carbamate] | 1.1 nM | 9.84 | 4140 ng/g | 433 ng/mL |  |  |  |
| COc1ccc(-c2cc3c(cc2F)[C@H](NC(=O)O[C@@H]2CN4CCC2CC4)C(C)(C)C3)cc1 [Example 82, (S)-quinuclidin-3-yl((R)-6-fluoro-5-(4-methoxyphenyl)-2,2-dimethyl-2,3-dihydro-1H-inden-1-yl)carbamate] | 20.3 nM | 6.32 | 5520 ng/g | 896 ng/mL |  |  |  |
| COc1ccc(-c2ccc3c(c2)CC(C)(C)[C@H]3NC(=O)O[C@@H]2CN3CCC2CC3)cc1Cl [Example 14, (S)-quinuclidin-3-yl((R)-5-(3-chloro-4-methoxyphenyl)-2,2-dimethyl-2,3-dihydro-1H-inden-1-yl)carbamate] | 48.9 nM | 3.92 | 3070 ng/g | 781 ng/mL |  |  |  |
| CC(C)Oc1ccc(-c2ccc3c(c2)CC(C)(C)[C@H]3NC(=O)O[C@@H]2CN3CCC2CC3)cc1F [Example 21, (S)-quinuclidin-3-yl((R)-5-(3-fluoro-4-isopropoxyphenyl)-2,2-dimethyl-2,3-dihydro-1H-inden-1-yl)carbamate] | 20.9 nM | 6.48 | 9510 ng/g | 1480 ng/mL |  |  |  |
| CC(C)Oc1ccc(-c2cc3c(cc2F)[C@H](NC(=O)O[C@@H]2CN4CCC2CC4)C(C)(C)C3)cc1 [Example 68, (S)-quinuclidin-3-yl((R)-6-fluoro-5-(4-isopropoxyphenyl)-2,2-dimethyl-2,3-dihydro-1H-inden-1-yl)carbamate] | 1.54 nM | 9.77 | 13500 ng/g | 1420 ng/mL |  |  |  |
| CCCc1ccc(-c2cc3c(cc2F)[C@H](NC(=O)O[C@@H]2CN4CCC2CC4)C(C)(C)C3)cc1 [Example 61, (S)-quinuclidin-3-yl((R)-6-fluoro-2,2-dimethyl-5-(4-propylphenyl)-2,3-dihydro-1H-inden-1-yl)carbamate] | 10.6 nM | 11.1 | 4880 ng/g | 439 ng/mL |  |  |  |
| CC(C)Oc1ccc(-c2ccc3c(c2)CC(C)(C)[C@H]3NC(=O)O[C@@H]2CN3CCC2CC3)cc1Cl [Example 11, (S)-quinuclidin-3-yl((R)-5-(3-chloro-4-isopropoxyphenyl)-2,2-dimethyl-2,3-dihydro-1H-inden-1-yl)carbamate] | 23.4 nM |  |  |  | 9.12 | 2410 ng/g | 265 ng/mL |
| CC(C)Cc1ccc(-c2cc3c(cc2F)[C@H](NC(=O)O[C@@H]2CN4CCC2CC4)C(C)(C)C3)cc1 [Example 62, (S)-quinuclidin-3-yl((R)-6-fluoro-5-(4-isobutylphenyl)-2,2-dimethyl-2,3-dihydro-1H-inden-1-yl)carbamate] | 3.4 nM | 6.83 | 2960 ng/g | 434 ng/mL |  |  |  |
| CC(C)Oc1ccc(-c2cc3c(cc2F)[C@H](NC(=O)O[C@@H]2CN4CCC2CC4)C(C)(C)C3)cc1Cl [Example 66, (S)-quinuclidin-3-yl((R)-5-(3-chloro-4-isopropoxyphenyl)-6-fluoro-2,2-dimethyl-2,3-dihydro-1H-inden-1-yl)carbamate] | 5.04 nM | 7.85 | 5490 ng/g | 719 ng/mL |  |  |  |
| Cc1cc(-c2ccc3c(c2)CC(C)(C)[C@H]3NC(=O)O[C@@H]2CN3CCC2CC3)cc(C)c1OC(C)C [Example 10, (S)-quinuclidin-3-yl((R)-5-(4-isopropoxy-3,5-dimethylphenyl)-2,2-dimethyl-2,3-dihydro-1H-inden-1-yl)carbamate] | 10.3 nM | 5.62 | 6100 ng/g | 1090 ng/mL |  |  |  |
| COc1ccc(-c2ccc3c(c2)CC(C)(C)[C@H]3NC(=O)O[C@@H]2CN3CCC2CC3)c(Cl)c1 [Example 43, (S)-quinuclidin-3-yl((R)-5-(2-chloro-4-methoxyphenyl)-2,2-dimethyl-2,3-dihydro-1H-inden-1-yl)carbamate] | 6.4 nM | 3.65 | 5720 ng/g | 1560 ng/mL |  |  |  |
| COc1ccc(-c2cc3c(cc2F)[C@H](NC(=O)O[C@@H]2CN4CCC2CC4)C(C)(C)C3)c(F)c1 [Example 67, (S)-quinuclidin-3-yl((R)-6-fluoro-5-(2-fluoro-4-methoxyphenyl)-2,2-dimethyl-2,3-dihydro-1H-inden-1-yl)carbamate] | 5.3 nM | 4.11 | 3670 ng/g | 903 ng/mL |  |  |  |
| Cc1ccc(-c2ccc3c(c2)CC(C)(C)[C@H]3NC(=O)O[C@@H]2CN3CCC2CC3)cc1Cl [Example 45, (S)-quinuclidin-3-yl((R)-5-(3-chloro-4-methylphenyl)-2,2-dimethyl-2,3-dihydro-1H-inden-1-yl)carbamate] | 6 nM | 9.09 | 7820 ng/g | 858 ng/mL |  |  |  |
| COc1c(C)cc(-c2cc3c(cc2F)[C@H](NC(=O)O[C@@H]2CN4CCC2CC4)C(C)(C)C3)cc1C [Example 63, (S)-quinuclidin-3-yl((R)-6-fluoro-5-(4-methoxy-3,5-dimethylphenyl)-2,2-dimethyl-2,3-dihydro-1H-inden-1-yl)carbamate] | 20.6 nM | 1.4 | 1360 ng/g | 974 ng/mL |  |  |  |
| COc1ccc(-c2cc3c(cc2F)[C@H](NC(=O)O[C@@H]2CN4CCC2CC4)C(C)(C)C3)c(Cl)c1 [Example 103, (S)-quinuclidin-3-yl((R)-5-(2-chloro-4-methoxyphenyl)-6-fluoro-2,2-dimethyl-2,3-dihydro-1H-inden-1-yl)carbamate] | 5.6 nM | 2.76 | 4680 ng/g | 1700 ng/mL |  |  |  |
